Assay results published in ChEMBL document CHEMBL1201862, “PubChem BioAssay data set” (2004).
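Briefly, cells in 96-well plates were exposed to five compound concentrations for 48 h, and endpoints were estimated by linear interpolation. GI50 = concentration required for 50% inhibition of growth.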 Calls of active or inactive are those of the source. Cut-off read from the data, not from the text of the source: active = GI50 up to about 1.1 µM and inactive = higher. Non-standard residues stand in square brackets, D forms with d. Residues, ends and D or L forms follow the SMILES beside them. *: point of attachment. NMeF = CN[CH](Cc1ccccc1)C(=O)O; NMeV = CN[CH](C(=O)O)C(C)C; Boc = CC(C)(C)OC(=O)*

Columns and labels:
Assay in all cases: growth of human tumour cells (NCI), 48 h
SF-295 = system: SF-295
Malme-3M = system: Malme-3M
EKVX = system: EKVX
COLO 205 = system: COLO 205
M19-MEL = system: M19-MEL
HCC 2998 = system: HCC 2998
OVCAR-4 = system: OVCAR-4
NCI-H460 = system: NCI-H460
786-0 = system: 786-0
M14 = system: M14
NCI-H23 = system: NCI-H23
OVCAR-5 = system: OVCAR-5
LXFL 529 = system: LXFL 529
SR = system: SR
HOP-62 = system: HOP-62
RXF 393 = system: RXF 393
SF-268 = system: SF-268
HL-60 = system: HL-60
CCRF-CEM = system: CCRF-CEM

Row | Structure (SMILES) | GI50 (SF-295) | GI50 (Malme-3M) | GI50 (EKVX) | GI50 (COLO 205) | GI50 (M19-MEL) | GI50 (HCC 2998) | GI50 (OVCAR-4) | GI50 (NCI-H460) | GI50 (786-0) | GI50 (M14) | GI50 (NCI-H23) | GI50 (OVCAR-5) | GI50 (LXFL 529) | GI50 (SR) | GI50 (HOP-62) | GI50 (RXF 393) | GI50 (SF-268) | GI50 (HL-60) | GI50 (CCRF-CEM)
1 | CC(C)C1CC[C@@H](C)C[C@@]1(O)CC(N)=O (some centres not stated) | > 100 µM (inactive) | > 100 µM (inactive) | > 100 µM (inactive) | > 100 µM (inactive) | > 100 µM (inactive) | > 100 µM (inactive) | > 100 µM (inactive) | > 100 µM (inactive) | > 100 µM (inactive) | > 100 µM (inactive) | > 100 µM (inactive) | > 100 µM (inactive) | > 100 µM (inactive) | > 100 µM (inactive) |  |  |  |  | 
2 | O=C(CC(=O)N1N=C(n2ccc3ccccc32)CC1c1ccccc1)Nc1ccccc1Cl (configuration not stated) | > 100 µM (inactive) | > 100 µM (inactive) | > 100 µM (inactive) | > 100 µM (inactive) | > 100 µM (inactive) | > 100 µM (inactive) | > 100 µM (inactive) | > 100 µM (inactive) | > 100 µM (inactive) | > 100 µM (inactive) | > 100 µM (inactive) |  | > 100 µM (inactive) |  | > 100 µM (inactive) | > 100 µM (inactive) | > 100 µM (inactive) | > 100 µM (inactive) | > 100 µM (inactive)
3 | N=C1CSC2=NC3=C(CCC/C3=C\c3ccccc3)C(c3ccccc3)N12 (configuration not stated) | 5.85 µM (inactive) | 17.2 µM (inactive) | 2.62 µM (inactive) | 8.89 µM (inactive) | 5.19 µM (inactive) | 3.31 µM (inactive) |  | 3.42 µM (inactive) | 5.65 µM (inactive) | 3.3 µM (inactive) | 3.93 µM (inactive) | 6.53 µM (inactive) | 4.89 µM (inactive) |  | 11 µM (inactive) | 4.5 µM (inactive) | 11.8 µM (inactive) | 2.34 µM (inactive) | 2.24 µM (inactive)
4 | COc1cc(C(=O)C(CO)Oc2ccccc2OC)ccc1O (configuration not stated) | > 100 µM (inactive) | > 100 µM (inactive) | > 100 µM (inactive) | > 100 µM (inactive) | > 100 µM (inactive) | > 100 µM (inactive) | > 100 µM (inactive) | > 100 µM (inactive) | > 100 µM (inactive) | > 100 µM (inactive) | > 100 µM (inactive) | > 100 µM (inactive) | > 100 µM (inactive) | 34.9 µM (inactive) | > 100 µM (inactive) |  | > 100 µM (inactive) | > 100 µM (inactive) | > 100 µM (inactive)
5 | CC(C)(C)C(=C[S+]([O-])/N=C/c1ccccc1)C(C)(C)C (configuration not stated) |  | 22.3 µM (inactive) | 52.1 µM (inactive) | 41.1 µM (inactive) | 36.1 µM (inactive) |  | 21.4 µM (inactive) | 24.8 µM (inactive) | > 100 µM (inactive) | 40.2 µM (inactive) | 48 µM (inactive) | 48.6 µM (inactive) | 28.4 µM (inactive) | 24.7 µM (inactive) | 37.8 µM (inactive) | 26.7 µM (inactive) | 49.4 µM (inactive) |  | 17.8 µM (inactive)
6 | COC(=O)C1CC2c3c(c4ccccc4n3C)CC(C1=O)N2C (configuration not stated) | > 100 µM (inactive) | 43.9 µM (inactive) | 57.1 µM (inactive) | 17.3 µM (inactive) | 49.3 µM (inactive) | 34.8 µM (inactive) | 37.3 µM (inactive) | 45.3 µM (inactive) | 47.5 µM (inactive) | 37.8 µM (inactive) | 50.8 µM (inactive) | > 100 µM (inactive) | 39 µM (inactive) | 27.5 µM (inactive) |  |  | 68.9 µM (inactive) | 27.3 µM (inactive) | 34.6 µM (inactive)
7 | C=C1C(=O)OC2C1CC[C@H](C)C13OC(=O)CC1[C@@]23C (some centres not stated) | > 100 µM (inactive) | > 100 µM (inactive) | > 100 µM (inactive) | > 100 µM (inactive) | > 100 µM (inactive) | > 100 µM (inactive) |  | > 100 µM (inactive) | > 100 µM (inactive) |  | > 100 µM (inactive) | > 100 µM (inactive) | > 100 µM (inactive) | > 100 µM (inactive) |  | > 100 µM (inactive) | > 100 µM (inactive) | > 100 µM (inactive) | > 100 µM (inactive)
8 | Cc1ccc(NC(=O)C(=O)CC(=O)c2ccccc2)cc1C | > 100 µM (inactive) | > 100 µM (inactive) | > 100 µM (inactive) | > 100 µM (inactive) | > 100 µM (inactive) | > 100 µM (inactive) | > 100 µM (inactive) | > 100 µM (inactive) | > 100 µM (inactive) | > 100 µM (inactive) | > 100 µM (inactive) | > 100 µM (inactive) | 76.9 µM (inactive) |  | > 100 µM (inactive) | > 100 µM (inactive) | > 100 µM (inactive) |  | 
9 | CC1C2C=C(O)C(=O)C(C2=O)C1c1ccccc1 (configuration not stated) | > 100 µM (inactive) | > 100 µM (inactive) | > 100 µM (inactive) | > 100 µM (inactive) | > 100 µM (inactive) | > 100 µM (inactive) | > 100 µM (inactive) |  | > 100 µM (inactive) | > 100 µM (inactive) | > 100 µM (inactive) | > 100 µM (inactive) | > 100 µM (inactive) | > 100 µM (inactive) | > 100 µM (inactive) | > 100 µM (inactive) | > 100 µM (inactive) |  | > 100 µM (inactive)
10 | O=S(=O)(CC1=NC2C=CC=CC2N=C1)NCc1ccccc1 (configuration not stated) | > 100 µM (inactive) | > 100 µM (inactive) | > 100 µM (inactive) | > 100 µM (inactive) | > 100 µM (inactive) | 0.0156 µM (active) | 55.2 µM (inactive) | > 100 µM (inactive) | > 100 µM (inactive) | > 100 µM (inactive) | > 100 µM (inactive) | > 100 µM (inactive) | > 100 µM (inactive) |  | > 100 µM (inactive) | 12.9 µM (inactive) | > 100 µM (inactive) | 69.5 µM (inactive) | > 100 µM (inactive)
11 | CC(=O)C1(O)CC2(c3ccccc3)C(=O)C1(c1ccccc1)C(c1ccccc1)=C2c1ccccc1 (configuration not stated) | 33.4 µM (inactive) | > 100 µM (inactive) | > 100 µM (inactive) | > 100 µM (inactive) | > 100 µM (inactive) |  | 13.5 µM (inactive) | > 100 µM (inactive) | > 100 µM (inactive) | > 100 µM (inactive) | 36.6 µM (inactive) | 49.1 µM (inactive) | > 100 µM (inactive) | 85.1 µM (inactive) | > 100 µM (inactive) | > 100 µM (inactive) | > 100 µM (inactive) | 29.4 µM (inactive) | > 100 µM (inactive)
12 | CC1=CC(=O)N2C(OC[C@@H]2c2ccccc2)O1 (some centres not stated) | > 100 µM (inactive) | > 100 µM (inactive) | > 100 µM (inactive) | > 100 µM (inactive) | > 100 µM (inactive) |  | > 100 µM (inactive) | > 100 µM (inactive) | > 100 µM (inactive) | > 100 µM (inactive) | > 100 µM (inactive) |  | > 100 µM (inactive) | > 100 µM (inactive) | > 100 µM (inactive) | > 100 µM (inactive) | > 100 µM (inactive) | > 100 µM (inactive) | > 100 µM (inactive)
13 | CC(C)C(NC(=O)OC(C)(C)C)C(=O)N(C)C(Cc1ccccc1)C(=O)N(C)C(C(=O)O)C(C)C (stereo not drawn) (Boc-Val-[NMeF]-[NMeV]-OH; configuration not given here) | > 100 µM (inactive) | > 100 µM (inactive) | > 100 µM (inactive) | > 100 µM (inactive) | > 100 µM (inactive) | > 100 µM (inactive) |  | > 100 µM (inactive) | > 100 µM (inactive) | > 100 µM (inactive) | > 100 µM (inactive) |  | > 100 µM (inactive) | > 100 µM (inactive) | > 100 µM (inactive) |  | 62.4 µM (inactive) | > 100 µM (inactive) | > 100 µM (inactive)
14 | Cc1ccccc1-n1c(N)c(-c2nc3ccccc3[nH]2)sc1=S | 22.6 µM (inactive) | 21.5 µM (inactive) | 53.5 µM (inactive) | 22.6 µM (inactive) | 23.3 µM (inactive) | 18.3 µM (inactive) | 28.8 µM (inactive) |  | 30.1 µM (inactive) | 20.5 µM (inactive) | 23.3 µM (inactive) | 37 µM (inactive) | 22.1 µM (inactive) |  | 25 µM (inactive) | 30.1 µM (inactive) | 29.6 µM (inactive) | 26.1 µM (inactive) | 36.5 µM (inactive)
15 | CCOC(=O)c1c(-c2[nH]c(C(=O)OCc3ccccc3)c(C)c2C(=O)OCC)[nH]c(C(=O)OCc2ccccc2)c1C | > 100 µM (inactive) | > 100 µM (inactive) | > 100 µM (inactive) | > 100 µM (inactive) | > 100 µM (inactive) | > 100 µM (inactive) |  | > 100 µM (inactive) | 92 µM (inactive) | > 100 µM (inactive) |  | > 100 µM (inactive) | > 100 µM (inactive) | > 100 µM (inactive) | > 100 µM (inactive) | 19.9 µM (inactive) | > 100 µM (inactive) |  | 
16 | CN1CCCCC(C(O)(c2ccccc2)c2ccccc2)C1=O (configuration not stated) | > 100 µM (inactive) | > 100 µM (inactive) | > 100 µM (inactive) | 56.2 µM (inactive) | > 100 µM (inactive) | > 100 µM (inactive) | > 100 µM (inactive) | 80 µM (inactive) | > 100 µM (inactive) | > 100 µM (inactive) | > 100 µM (inactive) | > 100 µM (inactive) | 81.7 µM (inactive) | > 100 µM (inactive) | > 100 µM (inactive) | 69 µM (inactive) | > 100 µM (inactive) |  | 85.5 µM (inactive)
